Tests used:
Assay type in all cases: biochemical
Caspase-8 = Caspase-8 (Homo sapiens, UniProt Q14790); assay: Kinetic compound screening, progress curve method, caspase-8; conditions: for Ki(app) Caspase-8: Table III, Ki(app) = Kass or Kobs/I, 10 nM active caspase-8; for Caspase-8 Ki (app): Table IV, NI = no inhibition at concentrations tested
Source text: (§1) Table III below presents Ki(app) values for select AB compounds. Ki(app) values (also called Kass or Kobs/I) represent the speed of inhibitor binding to a target enzyme. Units are [M^−1s^−1]. NI indicates no inhibition at concentrations tested. Parent compounds AB09, ABo8, and AB07 that include the optimal substrate specificity sequences for caspases-3, […] as determined by Thornberry and colleagues (Thornberry et al., 19970 are included between double lines.
(§2) The inhibitors AB07 (NP-LEHD-AOMK, caspase-9), AB08 (NP-LETD-AOMK, caspase-8), and AB09 (NP-DEVD-AOMK, caspase-3) were synthesized and kinetic inhibition constants (Kiapp) were obtained for all compounds for caspases 3, 7, 8 and 9 using the progress curve method for pseudo-first order reactions kinetics (Salvesen, 1989) (structures shown in Table I). […] Ki(app) values (also called Kass or Kobs/I) represent the speed of inhibitor binding to a target enzyme. Units are [M-1s-1]. NI indicates no inhibition at concentrations tested, ND indicates data not determined, SD indicates standard deviation.
(§3) Compound screening was completed using the progress curve method as described (Salvesen, 1989). All screening was carried out in caspase reaction buffer. The caspase-9 specific compounds AB38, 40, 41 and 42 were screened in caspase reaction buffer and in caspase buffer with 1M sodium citrate instead of sucrose as described (Pop, 2006) The concentrations of active caspases used is as follows: 5 nM active caspase-3, 5 nM active caspase-7, 10 nM active caspase-8, and 50 nM active caspase-9. To ensure full activation, caspases 3/7, 8 and 9 were preincubated at 37° C. for 5, 10, or 40 minutes respectively before kinetic measurements were made.

Caspase-9 = molecular target: T1, Caspase-9 (Homo sapiens, UniProt P55211); assay: Kinetic compound screening, progress curve method, caspase-9; conditions: NI = no inhibition at concentrations tested; for Ki(app) Caspase-9: Table III, Ki(app) = Kass or Kobs/I, 50 nM active caspase-9; for Caspase-9 Ki (app): Table IV
T1 sequence (P55211 1-416): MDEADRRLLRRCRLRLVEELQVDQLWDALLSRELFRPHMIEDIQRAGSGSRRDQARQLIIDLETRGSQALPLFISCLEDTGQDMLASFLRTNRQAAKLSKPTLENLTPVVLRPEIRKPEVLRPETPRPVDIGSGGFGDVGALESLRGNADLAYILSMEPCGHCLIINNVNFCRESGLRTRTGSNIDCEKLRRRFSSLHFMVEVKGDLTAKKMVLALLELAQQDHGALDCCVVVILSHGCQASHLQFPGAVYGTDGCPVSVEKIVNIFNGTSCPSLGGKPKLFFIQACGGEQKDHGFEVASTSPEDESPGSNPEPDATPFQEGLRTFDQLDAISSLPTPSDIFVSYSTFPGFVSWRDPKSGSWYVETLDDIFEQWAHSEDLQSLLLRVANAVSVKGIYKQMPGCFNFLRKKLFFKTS
Source text: as §1, §2, §3

Caspase-3 = molecular target: T2, Caspase-3 (Homo sapiens, UniProt P42574); assay: Kinetic compound screening, progress curve method, caspase-3; conditions: for Ki(app) Caspase-3: Table III, Ki(app) = Kass or Kobs/I, 5 nM active caspase-3; for Caspase-3 Ki(app): Table IV
T2 sequence (P42574 29-175 limits assumed): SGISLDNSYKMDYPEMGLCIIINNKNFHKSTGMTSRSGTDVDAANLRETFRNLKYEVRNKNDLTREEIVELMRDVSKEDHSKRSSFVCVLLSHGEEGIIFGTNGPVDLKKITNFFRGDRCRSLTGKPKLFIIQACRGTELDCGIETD
T2 sequence (P42574 176-277 limits assumed): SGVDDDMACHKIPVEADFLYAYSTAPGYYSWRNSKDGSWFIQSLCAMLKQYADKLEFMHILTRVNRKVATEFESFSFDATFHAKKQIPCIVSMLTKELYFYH
Source text: as §1, §2, §3

Caspase-7 = molecular target: T3, Caspase-7 (Homo sapiens, UniProt P55210); assay: Kinetic compound screening, progress curve method, caspase-7; conditions: for Ki(app) Caspase-7: Table III, Ki(app) = Kass or Kobs/I, 5 nM active caspase-7; for Caspase-7 Ki (app): Table IV
T3 sequence (P55210 1-303): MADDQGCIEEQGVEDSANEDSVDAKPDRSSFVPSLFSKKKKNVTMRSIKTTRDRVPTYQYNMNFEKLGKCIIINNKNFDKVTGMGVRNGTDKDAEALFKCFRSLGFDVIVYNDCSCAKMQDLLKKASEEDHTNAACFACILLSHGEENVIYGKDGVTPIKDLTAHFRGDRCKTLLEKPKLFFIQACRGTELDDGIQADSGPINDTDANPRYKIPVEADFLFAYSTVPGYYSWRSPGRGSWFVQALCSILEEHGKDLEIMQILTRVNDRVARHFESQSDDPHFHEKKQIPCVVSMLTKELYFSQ
Source text: as §1, §2, §3

[1] = test system: recombinant caspases-3, 7, 8 and 9; assay: Indirect competition with general probe KMB01 on individual recombinant caspases; conditions: 100 nM caspase, inhibitor 30 min, then 5 μM KMB01 30 min; range of concentrations
Procedure: (a.) Indirect competition of a panel of inhibitors with the general caspase probe KMB01. Individual caspases-3, 7, 8 and 9 (100 nM each) were incubated with the indicated inhibitors for 30 minutes followed by a 30 minute incubation with KMB01. Samples were analyzed by SDS-PAGE and residual active site labeling was visualized by biotin blotting using streptavidin-HRP. (b.) Direct labeling of caspase active sites using specific ABPs. Equal amounts of active caspaseses-3, 8, and 9 ([…]) were incubated together with increasing concentrations of each of the indicated biotinylated active site probes for 30 minutes. Active site labeling was visualized by SDS-PAGE analysis followed by biotin blotting using streptavidin HRP. (*) Indicates labeling of the full-length form of caspase-3 that is only observed using recombinant enzyme preparations.
We initially focused on recombinant caspase3, 7, 8, and 9. Each caspase was individually pre-incubated with our optimal series of selective inhibitors at a range of concentrations and residual activity was measured by addition of the general caspase probe KMB01. Overall, the competition data mirrored the kinetic data with caspase-3 and 8-specific compounds showing specific competition of the desired target.
This was shown by analysis of inhibitor and probe selectivity by indirect competition and direct labeling of recombinant caspases. Indirect competition of a panel of inhibitors with the general caspase probe KMB01 was carried out with individual caspases-3, 7, 8 and 9 (100 nM each), which were incubated with the specific inhibitors for 30 minutes followed by a 30-minute incubation with KMB01. Samples were analyzed by SDS-PAGE and residual active site labeling was visualized by biotin blotting using streptavidin-HRP. Also, the direct labeling of caspase active sites was carried out using specific ABPs. Equal amounts of active caspaseses-3, 8, and 9 ([…]) were incubated together with increasing concentrations of each of the indicated biotinylated active site probes for 30 minutes. Active site labeling was visualized by SDS-PAGE analysis followed by biotin blotting using streptavidin HRP.
For all competition and direct labeling experiments recombinant caspases were pre-incubated in caspase reaction buffer for 15 minutes at 37° C. For competition experiments, 100 nM of active site titrated caspase was incubated for 30 minutes at 37° C. with appropriate inhibitor and then residual active sites were labeled with 5 μM KMB01 for an additional 30 minutes. For direct labeling, 100 nM caspase-3, 8, and 9 were incubated together in the presence of appropriate ABPs at the indicated concentrations for 30 min at 37° C.

Caspase-8, sequence (Q14790 217-479): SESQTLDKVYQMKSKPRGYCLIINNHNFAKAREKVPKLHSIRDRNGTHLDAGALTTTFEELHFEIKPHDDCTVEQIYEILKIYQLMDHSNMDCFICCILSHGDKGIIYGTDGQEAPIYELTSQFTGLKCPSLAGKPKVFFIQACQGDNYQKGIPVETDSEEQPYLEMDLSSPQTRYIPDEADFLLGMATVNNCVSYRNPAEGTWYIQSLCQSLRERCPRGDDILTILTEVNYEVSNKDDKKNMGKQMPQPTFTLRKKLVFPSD

| Compound | Ki(app) Caspase-8 (Caspase-8) | Caspase-8 Ki (app) (Caspase-8) | Ki(app) Caspase-9 (Caspase-9) | Caspase-9 Ki (app) (Caspase-9) | Ki(app) Caspase-3 (Caspase-3) | Caspase-3 Ki(app) (Caspase-3) | Ki(app) Caspase-7 (Caspase-7) | Caspase-7 Ki (app) (Caspase-7) | competition for KMB01 labeling of recombinant caspases [1] |
| --- | --- | --- | --- | --- | --- | --- | --- | --- | --- |
| CC[C@H](NC(=O)[C@@H](CCC(=O)O)NC(=O)c1ccccc1N)C(=O)N[C@@H](CC(=O)O)C(=O)COC(=O)c1c(C)cccc1C [AB28, NH2-6-E-8-D-DMBA] | 817,077 M^−1s^−1 | 817,077 M-1s-1 | 300,767 M^−1s^−1 | 300,767 M-1s-1 | 1,020,213 M^−1s^−1 | 1,020,213 M-1s-1 | 272,619 M^−1s^−1 | 272,619 M-1s-1 | blocked labeling of all four caspases targets |
| Cc1cccc(C)c1C(=O)OCC(=O)[C@H](CC(=O)O)NC(=O)[C@H](C)NC(=O)[C@H](CC(C)C)NC(=O)C1CCCN1C(=O)Cc1ccc([N+](=O)[O-])c(O)c1 (stereo partly drawn) [AB38, Np-P-L- A-D-AOMK] | 19,676 M^−1s^−1 | 19,676 M-1s-1 | 18,004 M^−1s^−1 | 18,004 M-1s-1 | 46,108 M^−1s^−1 | 46,108 M-1s-1 | 27,814 M^−1s^−1 | 27,814 M-1s-1 | minimal degree of selectivity for caspase-9 over caspase-8 |
| CCC(C)C(NC(=O)Cc1ccc(O)c([N+](=O)[O-])c1)C(=O)N[C@@H](CC(C)C)C(=O)N[C@@H](C)C(=O)N[C@@H](CC(=O)O)C(=O)COC(=O)c1c(C)cccc1C (stereo partly drawn) [AB40, Np-I-L- A-D-AOMK] | 35,174 M^−1s^−1 | 35,174 M-1s-1 | 48,867 M^−1s^−1 | 48,867 M-1s-1 | 261,470 M^−1s^−1 | 261,470 M-1s-1 | 11,256 M^−1s^−1 | 11,256 M-1s-1 | no specific inhibition |
| CCC(C)C(NC(=O)Cc1ccc(O)c([N+](=O)[O-])c1)C(=O)N[C@@H](CC(C)C)C(=O)N1CSCC1C(=O)N[C@@H](CC(=O)O)C(=O)COC(=O)c1c(C)cccc1C (stereo partly drawn) [AB41, Np-I-L-38-D-AOMK] | 49,815 M^−1s^−1 | 49,815 M-1s-1 | 35,779 M^−1s^−1 | 35,779 M-1s-1 | 1,582,350 M^−1s^−1 | 1,582,350 M-1s-1 | 69,317 M^−1s^−1 | 69,317 M-1s-1 | no specific inhibition |
| CCC(C)C(NC(=O)Cc1ccc(O)c([N+](=O)[O-])c1)C(=O)NC(Cc1ccccc1)C(=O)N1CCCC1C(=O)N[C@@H](CC(=O)O)C(=O)COC(=O)c1c(C)cccc1C (stereo partly drawn) [AB42, NP-I-F- P-D-AOMK] | 22,544 M^−1s^−1 | 22,544 M-1s-1 | 44,709 M^−1s^−1 | 44,709 M-1s-1 | 892,045 M^−1s^−1 | 892,045 M-1s-1 | 42,594 M^−1s^−1 | 42,594 M-1s-1 | minimal degree of selectivity for caspase-9 over caspase-8 |

Reference: patent US20100068150A1, “Selective Caspase Inhibitors” (The Board of Trustees of the Leland Stanford Junior …, priority 2006, published 2010)
